Assay results from patent US20210355129A1, “NOVEL UREA 6,7-DIHYDRO-4H-PYRAZOLO[1,5-A]PYRAZINES ACTIVE AGAINST THE HEPATITIS B VIRUS (HBV)” (AICURIS GMBH & CO. KG, priority 2018, published 2021).

Key:
[1] = tested on: HBV; test: Determination of HBV DNA from the supernatants of HepAD38 cells (anti-HBV activity); conditions: Hepatitis B virus, HePAD38, 144 h, read-out: Cell Activity
[2] = Cell viability assay (AlamarBlue); type: cell-based; conditions: human, HepAD38 cells in the presence of 0.3 μg/ml tetracycline, six days incubation
Procedure: Using the AlamarBlue viability assay cytotoxicity was evaluated in HepAD38 cells in the presence of 0.3 μg/ml tetracycline, which blocks the expression of the HBV genome. Assay condition and plate layout were in analogy to the anti-HBV assay, however other controls were used. On each assay plate six wells containing untreated HepAD38 cells were used as the 100% viability control, and six wells filled with assay medium only were used as 0% viability control. In addition, a geometric concentration series of cycloheximide starting at 60 μM final assay concentration was used as positive control in each experiment. After six days incubation period Alamar Blue Presto cell viability reagent (ThermoFisher, Dreieich) was added in 1/11 dilution to each well of the assay plate. After an incubation for 30 to 45 min at 37° C. the fluorescence signal, which is proportional to the number of living cells, was read using a Tecan Spectrafluor Plus plate reader with an excitation filter 550 nm and emission filter 595 nm, respectively. […] Mean EC50 and CC50 values were used to calculate the selectivity index (SI=CC50/EC50) for each test compound.

SMILES	EC50 [1] [µM]	CC50 at 6 days [2] [µM]
CN(C(=O)c1cnn2c1CN(C(=O)Nc1ccc(F)c(Cl)c1)CC2)C1(CO)CC1 [Example 9, N5-(3-chloro-4-fluorophenyl)-N3-[1-(hydroxymethyl)cyclopropyl]-N3-methyl-4H,5H,6H,7H-pyrazolo[1,5-a]pyrazine-3,5-dicarboxamide]	< 1	> 10
CC1Cn2ncc(C(=O)N(C)C3(COC(F)F)CC3)c2CN1C(=O)Nc1ccc(F)c(Cl)c1 (stereo not shown) [Example 6, N5-(3-chloro-4-fluorophenyl)-N3-{1-[(difluoromethoxy)methyl]cyclopropyl}-N3,6-dimethyl-4H,5H,6H,7H-pyrazolo[1,5-a]pyrazine-3,5-dicarboxamide]	< 1	> 10
CN(C(=O)c1cnn2c1CN(C(=O)Nc1ccc(F)c(Cl)c1)CC2)C1(c2ccncc2)CC1 [Example 7, N5-(3-chloro-4-fluorophenyl)-N3-methyl-N3-[1-(pyridin-4-yl)cyclopropyl]-4H,5H,6H,7H-pyrazolo[1,5-a]pyrazine-3,5-dicarboxamide]	< 1	> 10
CCOCC1(N(C)C(=O)c2cnn3c2CN(C(=O)Nc2ccc(F)c(Cl)c2)CC3)CC1 [Example 3, N5-(3-chloro-4-fluorophenyl)-N3-[1-(ethoxymethyl)cyclopropyl]-N3-methyl-4H,5H,6H,7H-pyrazolo[1,5-a]pyrazine-3,5-dicarboxamide]	< 1	> 10
O=C(Nc1ccc(F)c(Cl)c1)N1CCn2ncc(C(=O)N(CCO)C3(CO)CC3)c2C1 [Example 10, N5-(3-chloro-4-fluorophenyl)-N3-(2-hydroxyethyl)-N3-[1-(hydroxymethyl)cyclopropyl]-4H,5H,6H,7H-pyrazol [1,5-a]pyrazine-3,5-dicarboxamide]	< 1	> 10
O=C(Nc1ccc(F)c(Cl)c1)N1CCn2ncc(C(=O)N3CCOCCC34CC4)c2C1 [Example 12, N-(3-chloro-4-fluorophenyl)-3-{7-oxa-4-azaspiro[2.6]nonane-4-carbonyl}-4H,5H,6H,7H-pyrazolo[1,5-a]pyrazine-5-carboxamide]	< 1	> 10
CC(C)OCC1(N(C)C(=O)c2cnn3c2CN(C(=O)Nc2ccc(F)c(Cl)c2)CC3)CC1 [Example 2, N5-(3-chloro-4-fluorophenyl)-N3-methyl-N3-{1-[(propan-2-yloxy)methyl]cyclopropyl}-4H,5H,6H,7H-pyrazolo[1,5-a]pyrazine-3,5-dicarboxamide]	< 1	> 10
O=C(Nc1ccc(F)c(Cl)c1)N1CCn2ncc(C(=O)N3CCCOCC34CC4)c2C1 [Example 11, N-(3-chloro-4-fluorophenyl) -3-{8-oxa-4-azaspiro[2.6]nonane-4-carbonyl}-4H,5H,6H,7H-pyrazolo[1,5-a]pyrazine-5-carboxamide]	< 1	> 10
CN(C(=O)c1cnn2c1CN(C(=O)Nc1ccc(F)c(Cl)c1)CC2)C1(CCOC(F)F)CCCC1 [Example 15, N5-(3-chloro-4-fluorophenyl) -N3-{1-[2-(difluoromethoxy)ethyl]cyclopentyl}-N3-methyl-4H,5H,6H,7H -pyrazolo [1,5-a]pyrazine-3,5-dicarboxamide]	< 1	> 10
CC1Cn2ncc(C(=O)N(C)C3CC3)c2CN1C(=O)Nc1ccc(F)c(Cl)c1 (stereo not shown) [Example 17, N5-(3-chloro-4-fluorophenyl)-N3-cyclopropyl-N3,6-dimethyl-4H,5H,6H,7H -pyrazolo[1,5-a]pyrazine-3,5-dicarboxamide]	< 1	> 10
COCC1(N(C)C(=O)c2cnn3c2CN(C(=O)Nc2ccc(F)c(Cl)c2)C(C)C3)CC1 (stereo not shown) [Example 1, N5-(3-chloro-4-fluorophenyl)-N3-[1-(methoxymethyl)cyclopropyl]-N3,6-dimethyl-4H,5H,6H,7H-pyrazolo[1,5-a]pyrazine-3,5-dicarboxamide]	< 1	> 10
CN(C(=O)c1cnn2c1CN(C(=O)Nc1ccc(F)c(Cl)c1)CC2)C1(CNCC(F)(F)F)CC1 [Example 13, N5-(3-chloro-4-fluorophenyl)-N3-methyl-N3-(1-{[(2,2,2-trifluoroethyl)amino]methyl}cyclopropyl)-4H,5H,6H,7H-pyrazolo[1,5-a]pyrazine-3,5-dicarboxamide]	< 1	> 10
CN(C(=O)c1cnn2c1CN(C(=O)Nc1ccc(F)c(Cl)c1)CC2)C1(c2ncccn2)CC1 [Example 8, N5-(3-chloro-4-fluorophenyl)-N3-methyl-N3-[1-(pyrimidin-2-yl)cyclopropyl]-4H,5H,6H,7H-pyrazolo[1,5-a]pyrazine-3,5-dicarboxamide]	< 1	> 10
O=C(Nc1ccc(F)c(Cl)c1)N1CCn2ncc(C(=O)N3CC(F)(F)CC34CC4)c2C1 [Example 5, N-(3-chloro-4-fluorophenyl)-3-{6,6-difluoro-4-azaspiro[2.4]heptane-4-carbonyl}-4H,5H,6H,7H-pyrazolo[1,5-a]pyrazine-5-carboxamide]	< 1	> 10
CN(C(=O)c1cnn2c1CN(C(=O)Nc1ccc(F)c(Cl)c1)CC2)C1(COC(F)F)CC1 [Example 4, N5-(3-chloro-4-fluorophenyl)-N3-{1-[(difluoromethoxy)methyl]cyclopropyl}-N3-methyl-4H,5H,6H,7H-pyrazolo[1,5-a]pyrazine-3,5-dicarboxamide]	< 1	> 10
CN(C(=O)c1cnn2c1CN(C(=O)Nc1ccc(F)c(Cl)c1)CC2)C1(CCOC(F)F)CCOCC1 [Example 16, N5-(3-chloro-4-fluorophenyl)-N3-{4-[2-(difluoromethoxy)ethyl]oxan-4-yl}-N3-methyl-4H,5H,6H,7H-pyrazolo[1,5-a]pyrazine-3,5-dicarboxamide]	< 1	> 10
CN(C(=O)c1cnn2c1CN(C(=O)Nc1ccc(F)c(Cl)c1)CC2)C1(CCOC(F)F)CCC1 [Example 14, N5-(3-chloro-4-fluorophenyl)-N3-{1-[2-(difluoromethoxy)ethyl]cyclobutyl}-N3-methyl-4H,5H,6H,7H-pyrazolo[1,5-a]pyrazine-3,5-dicarboxamide]	< 1	> 10
